Laboratory results reported in the NIST ThermoML archive (doi:10.1021/je800591u).
± gives the expanded uncertainty stated by the source.

Conditions: Liquid, Ebulliometric method (Recirculating still)

Structure (SMILES)	vapor or sublimation pressure (288.15 K)	vapor or sublimation pressure (303.15 K)	vapor or sublimation pressure (318.15 K)	vapor or sublimation pressure (333.15 K)	vapor or sublimation pressure (348.15 K)	vapor or sublimation pressure (363.15 K)
FC(C(F)(F)F)C(F)(F)F [1,1,1,2,3,3,3-heptafluoropropane]	335 ± 14 kPa	529 ± 14 kPa	804 ± 14 kPa	1176 ± 15 kPa	1664 ± 16 kPa	2294 ± 17 kPa
C=C(C)C [2-methylpropene]	223 ± 14 kPa	352 ± 14 kPa	536 ± 14 kPa	785 ± 14 kPa	1107 ± 15 kPa	1515 ± 15 kPa
